Cytotoxicity data for 97 molecules are collected here from ChEMBL document CHEMBL3507680, “University of Dundee, Gates Library screen for HepG2 cell viability”.

The data set is described as follows: Human HepG2 cell viability assay in 384 well format. The format is toxicity, cell-based. Details: dose 125 nL, time 70.5 hour; cytotoxicity at 70.5 h: concentration not given beside the values. Conditions: HepG2 cells, read-out: Inhibition.
On to `CCC[C@H]1CN(c2nc(CO)cs2)C[C@@H]1NC(=O)C1CCC1`, for which the cytotoxicity at 70.5 h was -5.73%.

Regarding `CCCSCC(=O)NCc1cccc(CN(C)CC)c1`, the cytotoxicity at 70.5 h was -9.96%. With `COc1ccc2nc(C[C@@H]3C[C@@H](C(C)C)[C@H](CN(C)C)C=C3C)[nH]c2n1` the figure was -3.85%. In the case of `Cc1nc(NCc2nonc2C)cc(C(C)Cn2nc(C)c(C)c2C)n1` (configuration not stated), the cytotoxicity at 70.5 h was -7.72%.

Turning to `O=C(O)c1ccnc(-c2ccnc(N3CCC(F)(F)CC3)n2)c1`, the cytotoxicity at 70.5 h was determined as 21%. `CCN(CC1CCCN(CCc2cccc(OC)c2)C1)C(=O)CSC` (configuration not stated): the cytotoxicity at 70.5 h was -8.89%. Regarding `Cc1cccc(NCCOc2cccc(C#N)c2)c1C(N)=O`, the cytotoxicity at 70.5 h worked out at 16.4%. For the molecule `COc1cc([C@@H]2N[C@H](c3nccs3)Cc3ccsc32)cc(OC)c1OC`, the cytotoxicity at 70.5 h is -0.55%.

Consider `CC(CNC(=O)c1ccc(F)cc1Cl)N1CCCC1` (configuration not stated), for which the cytotoxicity at 70.5 h was -7.32%. On to `NC(=O)c1ccccc1Oc1cnc(C2CCCN2)cn1` (configuration not stated), for which the cytotoxicity at 70.5 h was -7.87%. `COCC(=O)N1CC[C@H]2C[C@H](c3nc(C)no3)O[C@@H]2C1`: the cytotoxicity at 70.5 h was -7.44%. Under `O=C(Nc1cncc(Br)c1O)c1ccon1` stands -2.33%; under `CCOCC(=O)N1C[C@@H]2COC[C@]2(c2nc(C)no2)C1`, -7.6%; under `Cc1ccc(CNC(=O)c2c[nH]nc2NC(=O)C2CCC2)cc1`, -7.26%. As to `CN(C)c1ccnc(N2CCC(NCCOc3ccccc3)CC2)n1`, the cytotoxicity at 70.5 h was determined as 19.6%. Take `Fc1cnc(N2CCCn3c(nnc3Cn3cccc3)C2)nc1`: the cytotoxicity at 70.5 h stood at 27.5%. Under `CC1CCN(C(=O)C2CCN(S(C)(=O)=O)CC2)c2ccccc21` (configuration not stated) stands -7.57%; under `Cc1nn(C)c(Cl)c1S(=O)(=O)N(CC(N)=O)CC(C)C`, -16.6%. As for `CC(C)[C@@H]1CN(C(=O)c2ccc3c(c2)CCCO3)C[C@H]1NS(C)(=O)=O`, the cytotoxicity at 70.5 h was -1.93%. Regarding `c1ccc(COCCN2CCc3[nH]cnc3C2c2ccoc2)cc1` (configuration not stated), the cytotoxicity at 70.5 h is 26%. Consider `Cc1cc(C)nc(C2CCN(C(=O)CCn3ncc4ccccc43)C2)n1` (configuration not stated), for which the cytotoxicity at 70.5 h is 2.78%. In the case of `CN1CCc2nc3c(c(N)c2C1)CCCN3C`, the cytotoxicity at 70.5 h is -16.1%.

On to `O=C1CCCN1Cc1ncn2c1CN(S(=O)(=O)c1cccs1)CCC2`, for which the cytotoxicity at 70.5 h was -1.28%. In the case of `Cc1ccc(CC(=O)N2CCN(C(C)c3ccccc3F)CC2)cn1` (configuration not stated), the cytotoxicity at 70.5 h is -2.9%. With `Nc1nc(N)c2c(n1)OC1(CCN(C(=O)CC3CCCCN3)CC1)C2` (configuration not stated), the cytotoxicity at 70.5 h was -5.34%. For `CC(C)N1[C@H](CN2CCCC2)C[C@@H]2CN(Cc3cnn(C)c3)CC[C@@H]21`, the cytotoxicity at 70.5 h is -10.1%.

In the case of `Cc1ccccc1CC(=O)N(C)CC1(O)CCCN(c2ccccn2)C1` (configuration not stated), the cytotoxicity at 70.5 h is -5.53%. As to `Cc1cccc(CS(=O)(=O)c2nnc([C@@H](N)Cc3ccccc3)o2)c1`, the cytotoxicity at 70.5 h turned out to be 12.4%.

For the molecule `CC(C)(CNC(=O)c1ccc(Cl)o1)NC(=O)OC(C)(C)C`, the cytotoxicity at 70.5 h was determined as 22.2%.

In the case of `Cc1nn(C)c(Cl)c1CNCc1cccnc1N1CCOCC1`, the cytotoxicity at 70.5 h came out at 0.768%. `O=C(c1cccnc1O)N1CCC(COc2ccccc2)CC1`: the cytotoxicity at 70.5 h is -14.5%. Regarding `Cc1nccc(C(=O)N2CCCC(c3cc(C(F)(F)F)[nH]n3)C2)n1` (configuration not stated), the cytotoxicity at 70.5 h was -2.27%. `Cc1nc(C)n(C2CCCN(C(=O)Cc3cccnc3)C2)n1` (configuration not stated): the cytotoxicity at 70.5 h is 3.66%. With `O=C(C1CCC1)N1CCC2(COCc3cnc(-c4cccnc4)nc32)C1` (configuration not stated), the cytotoxicity at 70.5 h was -3.5%. Under `CC(C)c1nccc([C@H]2C[C@@H]3CCN(Cc4ccco4)C[C@H]3O2)n1` stands -9.27%.

For `CC(c1ccccc1Cl)N(C)Cc1nc2c(cnn2C)c(=O)[nH]1` (configuration not stated), the cytotoxicity at 70.5 h was -2.36%. Consider `CCC1CN(CC(=O)Nc2cc(C)nn2C)CCO1` (configuration not stated), for which the cytotoxicity at 70.5 h is -5.03%. Under `CCC1=N[C@@]2(CC[C@@H]3CN(C(=O)NCc4ccccc4C)C[C@@H]32)C(=O)N1` stands -11.1%; under `C[C@@H]1CN(Cc2ccccc2)CCN1C(=O)NCc1nccs1`, 0.13%. As for `COc1nc2c(cc1C(=O)NCc1nc(CSC)no1)CCC2`, the cytotoxicity at 70.5 h was -5.89%.

With `CCNc1ncc(C(=O)NCc2csc(C)n2)cn1`, the cytotoxicity at 70.5 h stood at 1.23%. For the molecule `CN(C)Cc1cccc(-c2cccnc2C(=O)NCc2ccccn2)c1`, the cytotoxicity at 70.5 h was -3.29%. As for `CS(=O)(=O)N1CCC(C(=O)NC(Cc2ccsc2)c2nccs2)CC1` (configuration not stated), the cytotoxicity at 70.5 h is -20.6%.

For the molecule `Cc1nc(C)c(C(=O)N2CCC(Nc3cccnc3)CC2)s1`, the cytotoxicity at 70.5 h was -8.38%. `O=C([C@@H]1CC[C@@H]2[C@@H](CCN2CCOCc2ccccc2)O1)N1CCCC1`: the cytotoxicity at 70.5 h was 13%. Consider `c1ccc(CN2CCCC[C@H]3CN(c4ncccn4)C[C@H]32)cc1`, for which the cytotoxicity at 70.5 h is -6.75%. As for `Cc1nc(C2CCNC2)nc2c1CCC(=O)N2C` (configuration not stated), the cytotoxicity at 70.5 h was -4.12%. Regarding `O=c1ccncn1Cc1csc(C2CC2)n1`, the cytotoxicity at 70.5 h is -3.74%. Regarding `CCn1nc(C)cc1C(=O)N1CCOc2ccc(OC)cc21`, the cytotoxicity at 70.5 h is -4.62%.

For the molecule `CCc1nnc2n1CCN(C(=O)c1ccc3c(c1)[nH]c(=O)n3C)C2`, the cytotoxicity at 70.5 h was -2.36%.

Take `c1cnn(CC2CCCN2Cc2noc(C3CC3)n2)c1` (configuration not stated): the cytotoxicity at 70.5 h is -3.73%. On to `O=C(C1CCCCC1)N1CCC2(COc3ncccc3S(=O)(=O)N2)C1` (configuration not stated), for which the cytotoxicity at 70.5 h was -4.42%. Turning to `CN1CC=C(c2noc(CCC(=O)N3CCc4ccccc4C3)n2)CC1`, the cytotoxicity at 70.5 h is -15%. Take `CC(O)CN(C(=O)NC1CCN(CC2CCCCC2)CC1)C(C)C` (configuration not stated): the cytotoxicity at 70.5 h was 1.48%. For the molecule `CCc1nccn1C1CCCN(C(=O)c2cc3nc(C)ccc3o2)C1` (configuration not stated), the cytotoxicity at 70.5 h was -2.05%. Regarding `CC(C)c1nn(C)cc1CNCc1ccnc(N(C)C)c1`, the cytotoxicity at 70.5 h was -7.83%. For `Cc1nc(N)nc(C)c1CC(=O)N1CCCN(CC2CC2)C(C(C)C)C1` (configuration not stated), the cytotoxicity at 70.5 h is -8.22%. Consider `Cc1cccc(C)c1Nc1noc2c1CN(C(=O)c1c[nH]nc1C)CC2`, for which the cytotoxicity at 70.5 h was found to be 12.8%. `O=C(Cn1ncc(N2CCNCC2)cc1=O)NCCc1ccc(F)cc1`: the cytotoxicity at 70.5 h was -3.8%. Turning to `CCC1(CO)CCCN(C(=O)c2ccc(N3CCN(C)CC3)cc2)C1` (configuration not stated), the cytotoxicity at 70.5 h is -4.46%. For `O=C(Cc1cccs1)N1CCCC(CNS(=O)(=O)Cc2ccccc2)C1` (configuration not stated), the cytotoxicity at 70.5 h was -5.58%.

`O=C(CCCn1cncn1)N1CCCCC1c1nccs1` (configuration not stated): the cytotoxicity at 70.5 h is -4.13%. As for `Cn1cnnc1SCc1cc2c(cc1Cl)OCO2`, the cytotoxicity at 70.5 h was -20.6%.

For the molecule `Clc1ccc(OCCc2cc(C3CCN(c4ncccn4)C3)n[nH]2)cc1` (configuration not stated), the cytotoxicity at 70.5 h was determined as 0.0716%. With `Cc1ccsc1C(=O)N1C[C@@H](C(=O)O)[C@H](C(C)C)C1`, the cytotoxicity at 70.5 h is 0.968%. Take `Cc1occc1-c1nnc2n1NC(N)=C(C#N)S2`: the cytotoxicity at 70.5 h was -22.4%. Consider `CC(C)NC(=O)N(C)C1CCN(c2ccccc2Cl)C1=O` (configuration not stated), for which the cytotoxicity at 70.5 h is -21.1%. For the molecule `CCn1ccnc1CN(C)Cc1nc(Cc2cccc(F)c2)no1`, the cytotoxicity at 70.5 h worked out at 11.1%.

For `Cc1nn(-c2ccccc2)c(C)c1-c1ccnc(N2CCCOCC2)n1`, the cytotoxicity at 70.5 h was -3.17%. In the case of `Cc1ccc(NS(=O)(=O)c2cnn(Cc3ccccc3)c2)c(C(=O)O)c1`, the cytotoxicity at 70.5 h was -21.3%. With `CCC(=O)N1CCC2(CC1)CNC(=O)c1cc(C)ccc1O2` the figure was -1.62%; with `Cc1nnc(NC(=O)NCc2ccoc2)s1`, -2.74%.

On to `CC(C)(C)c1cnc(CN2CCC(NC(=O)CC3CCCC3)CC2)o1`, for which the cytotoxicity at 70.5 h is 14%.

In the case of `CCOc1cccc(COC(=O)c2ccc(F)cn2)n1`, the cytotoxicity at 70.5 h is -2.51%. For the molecule `Cc1ccccc1C(C(=O)N(C)CCc1cnn(C)c1)N(C)C` (configuration not stated), the cytotoxicity at 70.5 h is -0.295%.

As for `c1cc(-c2nnc3sc(CCN4CCCC4)nn23)ccn1`, the cytotoxicity at 70.5 h was -9.13%. Regarding `Cc1nc(-c2ccccc2C)n(CC(=O)NC(C)C2CC2)n1` (configuration not stated), the cytotoxicity at 70.5 h was -5.7%.

As for `CN1CCOC[C@H]1c1nc(-c2ccncc2)c[nH]1`, the cytotoxicity at 70.5 h came out at 1.37%. Consider `CCn1c(C2CCNCC2)nn(CCCc2ccccc2)c1=O`, for which the cytotoxicity at 70.5 h is -5.09%.

Turning to `Cc1cc(N2CCc3cncnc3C2)n2nc(C(F)(F)F)nc2n1`, the cytotoxicity at 70.5 h is -104%. In the case of `O=C(c1ccccn1)N1CC[C@H]2[C@H]1CCN2S(=O)(=O)C1CC1`, the cytotoxicity at 70.5 h turned out to be 6.25%. Turning to `COc1ccccc1CN(C)C(=O)C[S+]([O-])Cc1cc(C)on1` (configuration not stated), the cytotoxicity at 70.5 h is -1.97%. In the case of `COc1cc(N2CCCC(c3ncc[nH]3)C2)ncn1` (configuration not stated), the cytotoxicity at 70.5 h is -1.53%.

For the molecule `CC(=O)Nc1ccc(CNCC(O)c2ccc(Cl)cc2)cc1` (configuration not stated), the cytotoxicity at 70.5 h is -5.19%. Regarding `Cc1ccc(C)c(C(=O)NC2CCC(N3C(=O)CCC3=O)CC2)c1` (configuration not stated), the cytotoxicity at 70.5 h was 3.79%. With `COc1cccc(-c2cc(C(=O)N3N=C(C)CC3(O)C(F)F)[nH]n2)c1` (configuration not stated) the figure was -11%; with `Cn1cc(N2C(=O)CC[C@@H]3[C@H]2CCN3Cc2nccs2)cn1`, -11.9%. As for `Cc1ccc(-n2ncc(C(=O)NC3CCCCC3)c2N)cc1`, the cytotoxicity at 70.5 h was -2.62%. Take `Cc1cnc(N2CCc3cc(C(=O)O)c(N(C)C)nc3CC2)nc1`: the cytotoxicity at 70.5 h was -7.94%. Under `CN(C(=O)NC1CC1)C1CCN(c2ccc(Cl)cc2)CC1` stands -7.5%; under `Cc1nc(N2CCOCC2)nc2c1CN(C(=O)Cc1ccccn1)CC2`, -8.21%; under `NS(=O)(=O)c1ccc(NCc2ccccc2)cc1C(F)(F)F`, 4.82%. Take `CN1CCN(c2ccccc2NC(=O)NCC[S+](C)[O-])CC1` (configuration not stated): the cytotoxicity at 70.5 h was -7.57%.

Regarding `CSc1nc(C2CC2)nc(C)c1C(=O)NCc1cc(C)on1`, the cytotoxicity at 70.5 h was -0.104%. Under `CN(CC1(CO)CCCC1)[C@@H]1c2ccccc2C2(CCNCC2)[C@H]1O` stands -3.86%. In the case of `CC(C)NC(=O)Cn1cc(-c2ccccc2)cn1`, the cytotoxicity at 70.5 h was determined as 1.95%.

With `COc1ccc2c(c1)[nH]c1c(N(C)CC3OCCO3)ncnc12`, the cytotoxicity at 70.5 h came out at 7.79%.
